Here are results for 23 compounds from patent US20260209220A1, “SUBSTITUTED TETRAHYDROPYRROLO-PYRIDINONE COMPOUNDS AND THEIR USE IN TREATING MEDICAL CONDITIONS” (Karuna Therapeutics, Inc., priority 2022, published 2026).

The target of one assay is T1, human M4 receptor (Homo sapiens, UniProt P08173).
T1 construct: expressed in transfected cells; host or cells: CHO-K1 cells (membranes)
T1 sequence (P08173 1-479): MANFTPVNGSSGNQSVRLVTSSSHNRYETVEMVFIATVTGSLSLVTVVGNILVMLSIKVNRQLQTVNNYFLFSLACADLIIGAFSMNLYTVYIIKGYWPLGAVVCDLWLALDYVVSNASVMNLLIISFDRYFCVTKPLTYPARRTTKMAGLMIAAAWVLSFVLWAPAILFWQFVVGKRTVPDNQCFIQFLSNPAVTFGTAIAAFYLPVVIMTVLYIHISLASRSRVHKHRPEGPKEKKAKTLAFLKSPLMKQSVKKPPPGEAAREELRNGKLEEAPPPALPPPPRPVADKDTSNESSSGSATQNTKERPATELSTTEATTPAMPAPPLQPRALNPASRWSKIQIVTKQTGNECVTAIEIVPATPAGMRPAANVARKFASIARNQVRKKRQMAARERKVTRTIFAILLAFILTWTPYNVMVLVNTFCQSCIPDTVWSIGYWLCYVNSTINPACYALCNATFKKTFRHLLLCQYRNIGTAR
The experiment in a line: M4 GTPγS PAM assay (CHO-K1 membranes, 35S-GTP binding, with EC20 acetylcholine). Format: biochemical. Conditions: with EC20 acetylcholine (40 nM). As to the method:
The M4 GTPγS PAM method was used. Membranes were prepared for GTPgS binding assays from CHO-K1 cells stably expressing human M4 receptor. Briefly, cells were grown in 5-layer cell culture flasks. Cells were washed with 50 mL of PBS and then dissociated with 0.05% trypsin. Dissociated cells were then collected by centrifugation at 650×g for 8 minutes at 4° C. Pellets were washed again in PBS by centrifugation and resuspended in 30 mL of 20 mM HEPES, 10 mM EDTA, pH 7.4. After sitting on ice for 30 min, membranes were collected by centrifugation at 50000×g for 15′ at 4° C., resuspended in 30 mL of 20 mM HEPES, 0.1 mM EDTA, pH 7.4 and collected again by centrifugation. Pellets were then washed twice by centrifugation in 30 mL of 20 mM HEPES, pH 7.4, and stored at −80° C. until the day of the assay. On the day of the assay, pellets were thawed on ice and resuspended in 1 mL of 20 mM HEPES, pH 7.4, 10 mM MgCl2, 100 mM NaCl using dounce homogenization. Membrane protein concentration is determined by BCA protein assay (Promega, Madison, WI) according to Promega guidelines.
On the day of the assay, serial dilutions of test PAM compounds were brought up in assay buffer (20 mM HEPES, 10 mM MgCl2, 100 mM NaCl) at 4X final assay concentration. […] of membrane homogenates (containing […] of membrane protein) were prepared in assay buffer supplemented with GDP at […] final assay concentration (final assay concentration of GDP is 5 μM for M2 and 0.1 μM for M4) and dispensed into 96 well polypropylene, U-bottom Greiner plates. 25 ml of vehicle or test PAM compound at 4× of final assay concentration diluted in the assay buffer were added to membrane and plates are incubated for 10-15 minutes at room temperature with gentle shaking. Then, […] of EC20 acetylcholine in assay buffer at 4× final assay concentration was added to assay plates (EC20 final assay concentrations was 40 nM for human M4).
Plates were then incubated, with shaking, for an additional 10-15 minutes. […] of 0.4 nM 35S-GTP (Perkin Elmer, Waltham, MA) in assay buffer was added to assay mixtures. The binding reaction is left on the shaker for 1 hour at room temperature. Membranes in assay reactions were then transferred to GF/C filter plates (Unifilter, Perkin Elmer) and washed three times using a FilterMate Harvester (Perkin Elmer) with cold assay buffer containing no GDP. Filter plates were then dried at 40° C. overnight followed by the addition of […] of Beta Plate Scintillation liquid. Plates are top and bottom sealed before being read on TopCount scintillation counter (Perkin Elmer, Waltham, MA).

Another assay deals with T2, rM4 receptors (Rattus norvegicus, UniProt P08485).
T2 construct: expressed in transfected cells; host or cells: CHO cells
T2 sequence (P08485 1-478): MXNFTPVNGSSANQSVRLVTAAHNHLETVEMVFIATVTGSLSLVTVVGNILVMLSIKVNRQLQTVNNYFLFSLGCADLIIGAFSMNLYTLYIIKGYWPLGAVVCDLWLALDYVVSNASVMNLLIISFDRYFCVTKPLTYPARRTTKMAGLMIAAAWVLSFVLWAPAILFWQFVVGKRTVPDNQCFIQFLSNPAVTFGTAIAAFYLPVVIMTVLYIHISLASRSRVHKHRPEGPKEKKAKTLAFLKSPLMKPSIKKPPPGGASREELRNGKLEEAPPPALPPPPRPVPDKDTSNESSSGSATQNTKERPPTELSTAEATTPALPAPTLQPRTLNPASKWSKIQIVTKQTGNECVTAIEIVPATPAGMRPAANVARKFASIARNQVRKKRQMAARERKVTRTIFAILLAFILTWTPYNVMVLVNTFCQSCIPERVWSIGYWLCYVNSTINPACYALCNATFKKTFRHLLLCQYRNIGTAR
Kind of assay: Rat M4 PAM PERK assay (CHO cells, TR-FRET, with EC20 acetylcholine). Format: cell-based. Here is the method:
(§1) Chinese hamster ovary (CHO) cells expressing either hM4 or rM4 receptors were frozen in assay ready vials (5×10^6 cells/vial) after bulking-up in culture. The day before an assay, vial(s) were thawed and cells seeded in 384 well white proxiplates at 1000/well for hM4 cells and at 2000/well for rM4 cells, in 10 μL of growth media (Hams/F12 with glutamax and 10% FCS) and incubated overnight at 37° C./5% CO2.
(§2) On the following morning, the growth media was removed by ‘flicking out’ over a bin, patting the inverted plate onto tissue, and then replacing with 10 μL of wash media (Hams/F12 with glutamax and 8 mM HEPES, NB: serum free). Then, the wash media was removed in the same way and replaced with 8 μL/well of the serum free media. Plates were then re-incubated for a further 4 hours at 37° C./5% CO2.
(§3) Compounds for testing were solubilized to 10 mM in DMSO and compound addition plates, consisting of ten-point concentration response curves (CRC) in duplicate points (10 μM top concentration, ½ log dilution series), were prepared by acoustic dispensing and the compound management group.
(§4) After the 4-hour incubation in serum free media, a 4 μL aliquot of the 3×compound solution containing an EC20 of acetylcholine (10 nM final concentration) was added to the cell plate using a 384 well plate to plate transfer. Then, the plate lid was replaced, and the cells incubated for 5 mins at 37° C./5% CO2. Following this final incubation, all cellular processes were stopped by the addition of 4 μL/well of lysis and blocking buffer and plates were incubated for 30 minutes at RT on an orbital shaker (gentle setting). Then, a final addition of 4 μL/well of antibody detection mix, containing both the Europium-Cryptate (donor) and d2 (acceptor) tagged detection components, was added followed by a further 2-hour incubation at RT, and then the plate was read using a TR-FRET (time resolved fluorescence resonance energy transfer) based protocol.

Another assay has as its target T3, hM4 receptors (Homo sapiens, UniProt P08173).
T3 construct: expressed in transfected cells; host or cells: CHO cells
T3 sequence (P08173 1-479): T1 sequence (P08173 1-479)
The experiment in a line: Human M4 PAM PERK assay (CHO cells, TR-FRET, with EC20 acetylcholine). In kind it is cell-based. As to the method: as §1, §2, §3, §4

With `Cc1c2c(n(C)c(=O)c1F)CN(C(=O)CC1CN(c3ccc(C(F)(F)F)cc3)C1)C2` [Compound I-85], the EC50 on human M4 receptor was < 50 nM; on rM4 receptors it was 50 to 200 nM; at hM4 receptors, 50 to 200 nM.
With `Cc1cc(=O)n(C)c2c1CN(C(=O)CC1CN(c3nc(C(F)(F)F)ns3)C1)C2` [Compound I-28], the EC50 at human M4 receptor, on rM4 receptors and on hM4 receptors was 200 to 1000 nM throughout.
Consider `Cc1cc(=O)n(C)c2c1CN(C(=O)C(C)(C)C1CN(c3ccnc(C(F)(F)F)c3)C1)C2` [Compound I-41, 1,4-Dimethyl-6-(2-methyl-2-(1-(2-(trifluoromethyl)pyridin-4-yl)azetidin-3-yl)propanoyl)-1,5,6,7-tetrahydro-2H-pyrrolo[3,4-b]pyridin-2-one], for which the EC50 at human M4 receptor and at hM4 receptors was > 1000 nM throughout.
As to `Cc1cc(=O)n(C)c2c1CN(C(=O)CC1CN(c3ccc(OC(F)(F)F)cc3)C1)C2` [Compound I-12], the concentration for a half-maximal effect (EC50) was in the range of 50 to 200 nM at human M4 receptor, 200 to 1000 nM at rM4 receptors and 200 to 1000 nM at hM4 receptors.
`Cc1cc(=O)n(C)c2c1CN(C(=O)CC1CN(c3ccnc(OCC4CC4)c3)C1)C2` [Compound I-10]: the EC50 at human M4 receptor was 50 to 200 nM; at rM4 receptors, 200 to 1000 nM; on hM4 receptors it was < 50 nM.
The corresponding values for `Cc1cc(=O)n(C)c2c1CN(C(=O)CC1CN(c3cccc(C(F)(F)F)c3)C1)C2` [Compound I-13] are 50 to 200 nM, 200 to 1000 nM and 200 to 1000 nM.
For the compound `Cc1cc(=O)n(C)c2c1CN(C(=O)CC1CN(c3ncc(C(F)(F)F)s3)C1)C2` [Compound I-29], the values for the half-maximal effective concentration (EC50) at human M4 receptor, on rM4 receptors and on hM4 receptors were 50 to 200 nM, 200 to 1000 nM and 50 to 200 nM, respectively.
For the compound `Cc1cc(=O)n(C)c2c1CN(C(=O)CC1CN(c3ccnc(C4CC4)n3)C1)C2` [Compound I-24], the concentration giving a half-maximal response (EC50) on human M4 receptor lay in the range of 50 to 200 nM; at rM4 receptors it was 200 to 1000 nM; on hM4 receptors, 50 to 200 nM.
Turning to `Cc1cc(=O)n(C)c2c1CN(C(=O)CC1CN(c3ccc(C#N)cc3)C1)C2` [Compound I-17], the EC50 on human M4 receptor was 50 to 200 nM; at rM4 receptors, 50 to 200 nM; on hM4 receptors, < 50 nM.
As to `COc1cccc(N2CC(CC(=O)N3Cc4c(C)cc(=O)n(C)c4C3)C2)c1` [Compound I-7], the figures for the concentration giving a half-maximal response (EC50) at human M4 receptor, at rM4 receptors and at hM4 receptors were 200 to 1000 nM, 50 to 200 nM and 200 to 1000 nM, respectively.
On to `Cc1c2c(n(C)c(=O)c1C)CN(C(=O)CC1CN(c3ccc(C#N)cc3)C1)C2` [Compound I-45], for which the EC50 was < 50 nM at human M4 receptor, 50 to 200 nM on rM4 receptors and < 50 nM at hM4 receptors.
As to `Cc1c2c(n(C)c(=O)c1C)CN(C(=O)CC1CN(c3cc(F)cc(F)c3)C1)C2` [Compound I-56], the half-maximal effective concentration (EC50) at human M4 receptor is 50 to 200 nM; on rM4 receptors, 50 to 200 nM; on hM4 receptors, < 50 nM.
Regarding `COc1c2c(n(C)c(=O)c1C)CN(C(=O)CC1CN(c3ccc(C(F)(F)F)cc3)C1)C2` [Compound I-100], the EC50 is < 50 nM at human M4 receptor, 200 to 1000 nM at rM4 receptors and 50 to 200 nM at hM4 receptors.
`Cc1cc(=O)n(C)c2c1CN(C(=O)CC1CN(c3ccc(F)cc3)C1)C2` [Compound I-11]: the EC50 on human M4 receptor, on rM4 receptors and on hM4 receptors was 200 to 1000 nM each time.
In the case of `Cc1cc(=O)n(C)c2c1CN(C(=O)CC1CN(c3cnn(C4CC4)c3)C1)C2` [Compound I-37], the results for the concentration giving a half-maximal response (EC50) at human M4 receptor, on rM4 receptors and on hM4 receptors were 200 to 1000 nM, > 1000 nM and 200 to 1000 nM, respectively.
Consider `Cc1c2c(n(C)c(=O)c1F)CN(C(=O)CC1CN(c3cnc(C(F)(F)F)cn3)C1)C2` [Compound I-90], for which the EC50 at human M4 receptor lay in the range of 200 to 1000 nM; on rM4 receptors, 50 to 200 nM; at hM4 receptors, 200 to 1000 nM.
Take `Cc1cc(=O)n(C)c2c1CN(C(=O)CC1CN(c3ccc(C#N)c(C(F)(F)F)c3)C1)C2` [Compound I-27]: the concentration for a half-maximal effect (EC50) on human M4 receptor, at rM4 receptors and at hM4 receptors was 50 to 200 nM each time.
As for `Cc1cc(=O)n(C)c2c1CN(C(=O)CC1CN(c3ccnc(C(F)(F)F)n3)C1)C2` [Compound I-23], the EC50 at human M4 receptor, on rM4 receptors and on hM4 receptors was 200 to 1000 nM throughout.
As to `Cc1cc(=O)n(C)c2c1CN(C(=O)CC1CN(c3cccc(C#N)c3)C1)C2` [Compound I-25], the half-maximal effective concentration (EC50) was in the range of 200 to 1000 nM on human M4 receptor, 200 to 1000 nM at rM4 receptors and 50 to 200 nM at hM4 receptors.
As for `Cc1cc(=O)n(C)c2c1CN(C(=O)CC1CN(c3cnc(C(F)(F)F)cn3)C1)C2` [Compound I-26], the figures for the EC50 on human M4 receptor, at rM4 receptors and at hM4 receptors were > 1000 nM, 50 to 200 nM and 200 to 1000 nM, respectively.
The corresponding values for `Cc1cc(=O)n(C)c2c1CN(C(=O)CC1CN(c3cccc(F)c3C)C1)C2` [Compound I-33] are 200 to 1000 nM, 200 to 1000 nM and 50 to 200 nM.
As for `COc1cc(N2CC(CC(=O)N3Cc4c(C(F)(F)F)cc(=O)n(C)c4C3)C2)ccn1` [Compound I-92], the concentration for a half-maximal effect (EC50) is > 1000 nM on human M4 receptor, > 1000 nM on rM4 receptors and 200 to 1000 nM at hM4 receptors.
Regarding `Cc1c2c(n(C)c(=O)c1C)CN(C(=O)CC1CN(c3ccc(C(C)(C)O)c(F)c3)C1)C2` [Compound I-59], the concentration for a half-maximal effect (EC50) at human M4 receptor was < 50 nM; at rM4 receptors, 50 to 200 nM; on hM4 receptors it was < 50 nM.
